Experimental data taken from publication PMC6017322, “Triterpene Acids from Frankincense and Semi-Synthetic Derivatives That Inhibit 5-Lipoxygenase and Cathepsin G” (Molecules : A Journal of Synthetic Chemistry and Natural …, 2018).

Tests used:
[1] = target: T1, cathepsin G (Homo sapiens, UniProt P08311); experiment: Cathepsin G activity in a cell-free assay (Suc-AAPF-pNA substrate); type: biochemical; conditions: for inhibition of cathepsin G / inhibition at 10 µM: at 10 µM; for remaining activity at 10 µM / Cat. G Activity [% Control]: residual activity at 10 µM, mean ± SEM, 3–4 experiments; for remaining activity at 10 µM / IC50 / Cat. G Activity [% Control]: cell-free; for remaining activity at 10 µM: read-out: Cat. G Activity [% Control]; for IC50: purified cathepsin G from human neutrophils, read-out: Cat. G IC50 (converted)
T1 construct: purified cathepsin G (0.2 µg) from human neutrophils; purchased Calbiochem; host or cells: human neutrophils (natural source)
T1 sequence (P08311 21-244 limits assumed): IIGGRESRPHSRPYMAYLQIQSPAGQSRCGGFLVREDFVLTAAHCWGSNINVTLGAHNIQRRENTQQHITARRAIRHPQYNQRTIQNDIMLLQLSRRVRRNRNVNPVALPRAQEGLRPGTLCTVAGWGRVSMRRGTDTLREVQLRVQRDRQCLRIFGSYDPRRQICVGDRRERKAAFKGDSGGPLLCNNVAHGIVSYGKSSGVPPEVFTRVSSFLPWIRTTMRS
Description: Commercially available purified cathepsin G (0.2 µg) from human neutrophils (Calbiochem, La Jolla, CA, USA) was mixed with test compounds or DMSO (vehicle control) in 200 µL 0.1 M HEPES pH 7.4, 0.5 M NaCl, and 10% DMSO in a 96-well plate (Greiner Bio-One, Frickenhausen, Germany) and pre-incubated for 20 min at 25 °C. Then, N-Suc–Ala–Ala–Pro–Phe–pNA (Suc–AAPF–pNA) (1 mM) as substrate for cathespin G was added, and the absorbance was measured at 410 nm at 25 °C using a Victor^2 plate reader (PerkinElmer, Waltham, MA, USA).

[2] = target: T2, 5-LO (Homo sapiens, UniProt P09917); experiment: 5-LO activity in a cell-free assay (isolated human recombinant 5-LO, 20 µM arachidonic acid); type: biochemical; design: made in house; host or cells: Escherichia coli BL21 (pT3-5-LO plasmid); conditions: for remaining activity at 10 µM / 5-LO Activity [% Control] cell-free: residual activity at 10 µM, isolated 5-LO, 20 µM arachidonic acid, mean ± SEM, 3–4 experiments; for remaining activity at 10 µM: read-out: 5-LO Activity [% Control] cell-free
T2 sequence (P09917 1-674): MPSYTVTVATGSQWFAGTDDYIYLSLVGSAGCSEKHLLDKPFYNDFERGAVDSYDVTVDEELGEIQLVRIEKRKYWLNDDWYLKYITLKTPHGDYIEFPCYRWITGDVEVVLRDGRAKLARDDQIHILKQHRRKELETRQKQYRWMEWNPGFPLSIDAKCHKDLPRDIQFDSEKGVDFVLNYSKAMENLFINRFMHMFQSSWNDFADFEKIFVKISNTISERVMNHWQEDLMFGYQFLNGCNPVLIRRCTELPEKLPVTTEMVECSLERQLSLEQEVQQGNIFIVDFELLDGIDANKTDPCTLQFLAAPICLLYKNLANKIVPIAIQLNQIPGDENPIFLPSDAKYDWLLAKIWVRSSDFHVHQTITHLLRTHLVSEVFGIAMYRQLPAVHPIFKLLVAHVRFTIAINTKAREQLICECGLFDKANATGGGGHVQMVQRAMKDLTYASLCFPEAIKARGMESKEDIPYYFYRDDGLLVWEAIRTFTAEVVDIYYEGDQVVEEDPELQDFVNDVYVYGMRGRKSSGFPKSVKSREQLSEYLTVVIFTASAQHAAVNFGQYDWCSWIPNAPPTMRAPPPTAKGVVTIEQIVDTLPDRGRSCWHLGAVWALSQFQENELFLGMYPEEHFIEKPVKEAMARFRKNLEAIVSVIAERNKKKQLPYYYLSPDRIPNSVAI
Description: Human recombinant 5-LO was expressed in Eschericha coli BL21 transformed with pT3-5-LO plasmid at 30 °C overnight, as described elsewhere. Cells were lysed in lysis buffer containing triethanolamine (50 mM, pH 8.0), EDTA (5 mM), phenylmethanesulfonyl fluoride (1 mM), soybean trypsin inhibitor (60 µg/mL), dithiothreitol (2 mM), and lysozyme (1 mg/mL), and homogenized by sonification (3 × 15 s). 5-LO was then purified from 40,000× g supernatant (20 min, 4 °C) using an ATP-agarose column (Sigma-Aldrich, Deisenhofen, Germany), diluted with PBS buffer containing 1 mM EDTA, and immediately used for 5-LO activity assays.
To determine 5-LO activity, aliquots of purified 5-LO (0.5 µg 5-LO in 1 mL PBS plus 1 mM EDTA) were pre-incubated with the test compounds or vehicle (0.1% dimethyl sulfoxide, DMSO) on ice for 15 min, pre-warmed for 30 s at 37 °C in a water bath, and then stimulated with 20 µM AA and CaCl2 2 mM for 10 min at 37 °C. The reaction was stopped with one volume of ice-cold methanol and 5-LO products (including all-trans-isomers of LTB4 and 5-hydroperoxyeicosatetraenoic acid (5-HpETE), as well as its corresponding alcohol 5-hydroxyeicosatetraenoic acid (5-HETE)) were analyzed by reversed phase (RP)-HPLC (Elite LaChrom, VWR, Radnor, PA, USA) as previously described. In brief, acidified PBS and 200 ng of internal PGB1 standard were added and solid phase extraction using C18 RP-columns (100 mg, UCT, Bristol, PA, USA) was performed. After elution with methanol, samples were analyzed by RP-HPLC using a C-18 Radial-PAK column (Waters, Eschborn, Germany).

[3] = target: T2, 5-LO; experiment: 5-LO product formation in intact human neutrophils stimulated with A23187 (cell-based); design: 5-LO product formation in intact human neutrophils; endogenous in cells; host or cells: freshly isolated human peripheral blood neutrophils; conditions: for IC50: human neutrophils stimulated with A23187; for remaining activity at 10 µM: residual activity at 10 µM, human neutrophils, A23187, mean ± SEM, 3–4 experiments, read-out: 5-LO Activity [% Control] cell-based
Description: Neutrophils were isolated from peripheral blood (University Hospital Tübingen, Germany), collected from fasted healthy adult donors that were informed about the aim of the study and gave written consent. Leukocyte concentrates were obtained by centrifugation (4000× g, 20 min, 20 °C) of heparinized blood preparation, and neutrophils were immediately isolated as described before. Briefly, leukocyte concentrates were subjected to dextran sedimentation and centrifuged on lymphocyte separation medium (LSM 1077, PAA, Coelbe, Germany). For isolation of pelleted neutrophils, remaining erythrocytes were removed by hypotonic lysis, washed twice with ice-cold phosphate-buffered saline (PBS) and finally resuspended in PBS buffer containing 0.1% glucose and CaCl2 (1 mM) (PGC buffer).
5-LO product formation in intact human neutrophils was performed using 5 × 10^6 freshly isolated cells that were resuspended in 1 mL PGC buffer. Cells were pre-incubated with the test compounds or vehicle (0.1% DMSO) at 37 °C for 15 min prior to stimulation with 2.5 µM Ca^2+-ionophore A23187 for 10 min (37 °C). 5-LO product formation was stopped by addition of one volume of ice-cold methanol, samples were subjected to solid phase extraction after addition of 200 ng PGB1 as internal standard, and 5-LO products (LTB4, its trans-isomers and 5-HETE) were analyzed by RP-HPLC as described above.

Row | Structure (SMILES) | inhibition of cathepsin G [1] | remaining activity at 10 µM [1] [%] | inhibition at 10 µM [2] [%] | remaining activity at 10 µM [2] [%] | IC50 [3] [µM] | remaining activity at 10 µM [3] [%] | inhibition at 10 µM [1] [%] | IC50 [1] [µM] | 5-LO Activity [% Control] cell-free [2] | Cat. G Activity [% Control] [1]
1 | CC(C)=CCC[C@H](C(=O)O)[C@@H]1CC[C@]2(C)C3=C(CC[C@@]12C)[C@@]1(C)CC[C@H](O)C(C)(C)[C@@H]1CC3 [compound 15] | failed to markedly inhibit cathepsin G | 80.1 ± 6.2 | 36 | 64.1 ± 12.4 | 3 | 5.2 ± 1 | – | – | – | –
2 | CC(C)=CCC[C@H](C(=O)O)[C@@H]1CC[C@]2(C)C3=C(CC[C@@]12C)[C@@]1(C)CCC(=O)C(C)(C)[C@@H]1CC3 [compound 16] | – | 53.1 ± 5.5 | – | 77.1 ± 8.7 | 7.1 | 37.8 ± 2.4 | 27 to 44 | – | – | –
3 | CC(=O)O[C@@H]1CC[C@]2(C)C3=C(CC[C@H]2C1(C)C)[C@@]1(C)CC[C@@H]([C@H](CCC=C(C)C)C(=O)O)[C@]1(C)CC3 [compound 17] | – | 66.7 ± 4.5 | – | 75.6 ± 3 | – | 75.5 ± 2.1 | 27 to 44 | – | – | –
4 | C[C@H]1[C@H](C)CC[C@]2(C)CC[C@]3(C)C(=C[C@@H](O)[C@@H]4[C@@]5(C)CC[C@@H](O)[C@](C)(C(=O)O)[C@@H]5CC[C@]43C)[C@H]12 [compound 18, 11α-Hydroxy-β-boswellic acid] | – | 62.9 ± 6.6 | < 25 | 72.8 ± 7.1 | 2.8 | 18.3 ± 2.7 | – | – | – | –
5 | C[C@H]1[C@H](C)CC[C@]2(C)CC[C@]3(C)C(=C[C@H](O)[C@@H]4[C@@]5(C)CC[C@@H](O)[C@](C)(C(=O)O)[C@@H]5CC[C@]43C)[C@H]12 [compound 19, 11β-hydroxy-β-boswellic acid] | – | 82.7 ± 9 | < 25 | 87.2 ± 1.8 | – | 58.2 ± 0.9 | – | – | – | –
6 | C[C@H]1[C@H](C)CC[C@]2(C)CC[C@]3(C)C(=CC[C@@H]4[C@@]5(C)CC[C@@H](OC(=O)C(=O)O)[C@](C)(C(=O)O)[C@@H]5CC[C@]43C)[C@H]12 [compound 20, 3-O-Oxaloyl-β-boswellic acid] | – | 38.1 ± 6.4 | – | – | – | 77.3 ± 5.7 | – | 4.7 | n.i. | –
7 | C[C@H]1[C@H](C)CC[C@]2(C)CC[C@]3(C)C(=CC(=O)[C@@H]4[C@@]5(C)CC[C@@H](OC(=O)C(=O)O)[C@](C)(C(=O)O)[C@@H]5CC[C@]43C)[C@H]12 [compound 21, 3-O-Oxaloyl-11-keto-β-boswellic acid] | not active | – | – | – | – | 70.3 ± 6.9 | – | – | n.i. | n.i.
8 | C[C@H]1[C@H](C)CC[C@]2(C)CC[C@]3(C)C(=CC[C@@H]4[C@@]5(C)CC[C@@H](OC(=O)CCC(=O)O)[C@](C)(C(=O)O)[C@@H]5CC[C@]43C)[C@H]12 [compound 22, 3-O-Succinoyl-β-boswellic acid] | – | 59.4 ± 7.6 | – | 85.9 ± 11.1 | – | 60.3 ± 8 | – | – | – | –
9 | C[C@H]1[C@H](C)CC[C@]2(C)CC[C@]3(C)C(=CC(=O)[C@@H]4[C@@]5(C)CC[C@@H](OC(=O)CCC(=O)O)[C@](C)(C(=O)O)[C@@H]5CC[C@]43C)[C@H]12 [compound 23, 3-O-Succinoyl-11-keto-β-boswellic acid] | not active | – | – | 75 ± 4.8 | – | 80.8 ± 6.8 | – | – | – | n.i.
10 | C[C@H]1[C@H](C)CC[C@]2(C)CC[C@]3(C)C(=CC[C@@H]4[C@@]5(C)CC[C@@H](OC(=O)CCCC(=O)O)[C@](C)(C(=O)O)[C@@H]5CC[C@]43C)[C@H]12 [compound 24, 3-O-Glutaroyl-β-boswellic acid] | – | 24.5 ± 1.7 | – | – | – | 65.3 ± 8 | – | 3.6 | n.i. | –
